# According to patent US12558329B2 (New York University, priority 2021, dated 2026):
# Entries after “also recorded” stand apart in the source; their conditions may differ. Peptide text beside a SMILES is read from it. * marks the point of attachment. Cbz = O=C(OCc1ccccc1)*
# How the values were obtained:
# MIAPACA2 cells [1] = assay: 13C9-Tyr tracing in MIAPACA2 cells with the indicated reagents; format: cell-based, human
# Description: 4-HMA biosynthesis has only been described in some bacteria and in rabbits. […] The production of 4-HPPA occurs in the first step of tyrosine (Tyr) catabolism via tyrosine transaminase (TAT). In rabbits, 4-HMA was proposed to be synthesized from the degradation of tyramine and octopamine by dopamine β-hydroxylase (Dbh) and monoamine oxidase (Mao) (FIG. 9A)^13. Tyramine is also a Tyr-derived metabolite. Therefore, all known substrates required to generate 4-HMA are derived from Tyr. In addition, Tyr can also be made from phenylalanine (Phe) by Phe hydroxylase (PAH) in mammalian liver cells^14. To elucidate the human 4-HMA biosynthetic pathway, the fates of ^13C9-Tyr and ^13C6-Phe were traced in human cells. […] Additionally, the generation of 4-HMA by […] would result in the incorporation of a single ^18O at the Ca position of the carboxylic acid of 4-HMA (FIG. 9A). However, this was not observed by ^18O labelling (FIG. 8B). Therefore, it was unlikely that 4-HMA biosynthesis from octopamine and tyramine catabolism occurred in the present system.
# Unexpectedly, 4-HMA levels also were lower in hyperoxic (21%) conditions compared to 3% O2, reflecting either decreased production or increased consumption of this metabolite at 21% O2.
# Therefore, CoQ10 was used as an indirect readout of 4-HB production. To assess the ability of human cells to biosynthesize CoQ10, cells were labelled with ^13C6-Phe or ^13C9-Tyr. CoQ10 was completely biosynthesized from Tyr, but not Phe, in human cells (FIG. 11B).
# (§1) For metabolomics, briefly, cells were washed in 4° C. 0.9% saline and metabolites were extracted with 46% methanol:23% H2O:[…] chloroform that contained a labelled amino acid standard mix (MSK-A2-1.2, Cambridge Isotope Laboratories, Inc.). Enzymatic assay samples were extracted using 80% methanol: 20% H2O that contained labelled amino acid standards. Extracts were placed into 1.5 mL Eppendorf tubes, vortexed at 4° C. for 10 min and centrifuged at 4° C. for 10 min at 17,200×g in a microcentrifuge. The aqueous phase was transferred to vials for GC-MS or Eppendorf tubes for LC-MS. Polar samples were evaporated in a SpeedVac and samples were resolved by GC-MS or LC-MS. Lipid samples were dried using a stream of N2 (for ^18O labelling studies) or air. Metabolite and lipid extracts were submitted to the NYULMC Metabolomics Core Resource Laboratory.
# For polar metabolomics, the LC column was a Millipore ZIC-pHILIC (2.1×150 […], 5 μm bead size) coupled to a Dionex UltiMate 3000 system. The column oven temperature was held at 25° C. The flow rate was 100 μL/min, and the injection volume was 1 μL. Buffer A was 10 mM ammonium carbonate in water, pH 9, and Buffer B was neat acetonitrile. The gradient profile was 80-20% B (0-30 min), 20-80% B (30-31 min), and 80-80% B (31-42 min). MS Analyses were carried out on a Thermo Q Exactive HF mass spectrometer using a heated electrospray ionization (HESI) source. The method duration was 30 min using a polarity-switching, top 5 method. The spray voltage for both positive and negative ion modes was 3.5 kV. The capillary temperature was 320° C. with a maximum spray current of 100 ρA. The full MS scan was carried out at 120,000 resolution with a scan range of 67-1000 m/z. For ^18O2 labelling experiments, full MS scans were carried out at 240,000 resolution at the same scan range. Tandem MS spectra were obtained at 15,000 resolution. All data were acquired in profile mode. Peak heights were analyzed using Xcalibur (ThermoFisher Scientific).
# Lipid metabolomics were acquired using a Waters CSH-C18 (2.1×100 mm, 1.7 μm) column coupled to a Dionex UltiMate 3000 system. The column oven temperature was held at 55° C. The flow rate was 300 μL/min and the injection volume was 1 μL. Buffer A was 60:40 acetonitrile:water, 0.1% formic acid and Buffer B was 90:10 isopropanol:acetonitrile, 10 mM ammonium formate. […]
# MIAPACA2 cells [2] = assay: 18O2-GASSP labelling of MIAPACA2 cells treated with MG132, IOX1, DFO or ascorbate; format: cell-based, human
# Method: As additional controls, MIAPACA2 cells were treated with an iron chelator (DFO, FIG. 5E-5F), a proteasome inhibitor (MG132) to induce proteotoxic stress, and physiological levels of ascorbate, an antioxidant, to determine the effects of ROS on ^18O-labelling. Labelling of ^18O γ-butyrobetaine was blocked by IOX1 and DFO, consistent with the fact that trimethyllysine hydroxylase (TMLH) is an iron-dependent dioxygenase (FIGS. 7A-7D). […] Total levels of ^18O labelled methionine sulfoxide increased upon MG132 treatment and decreased following ascorbate treatment (FIGS. 7I-7M)^10.
# (§2) All steps involved in setting up labelling with ^18O2 were performed at room temperature and inside a chemical fume hood. The procedure may vary depending on the type and number of tissue culture plates in the chamber and the amount of media in the plates. Users must test the system by using ^16O2:CO2:N2 or other unlabelled gases to optimize conditions for their needs and avoid consumption of costly labelled gases. Cells were treated with or without 5 μM MG132, 500 μM IOX1, 250 μM DFO, or 70 μM ascorbate, before placing tissue culture plates into the modular incubator chamber (MIC) containing a wireless oxygen sensor and a 15 cm dish of water to maintain humidity. Next, the clamps were closed to form an air-tight seal between the lid and platform of the MIC. […] N2 flushing was repeated for a total of three times, or until the sensor in the chamber stabilized at 0% O2 for 10 minutes.
# Next, the inlet valve was opened and the ^18O2:5% CO2:N2 gaseous mixture was flushed into the system at a rate of 2.5 L/min. Subsequently, the outlet valve was immediately opened to allow gas flow out of the chamber, and to release the pressure in the system. The chamber was injected with the ^18O2:5% CO2:N2 gaseous mixture for 1 minute before the inlet and outlet valves were closed simultaneously. The chamber was allowed to equilibrate for 5 minutes. This process was repeated seven times, or until the desired oxygen concentration was reached and was stable. For 3%, 1%, and 0.2% ^18O2 labelling studies, the chamber was infused with 5%:5%:90%, 1.5%:5%:93.5%, and 0.5%:5%:94.5% ^18O2:CO2:N2, respectively. The ^18O2-infused MIC was then placed in a 37° C., 5% CO2 tissue culture incubator for 24 hours. The oxygen concentration in the chamber was monitored regularly. Oxygen measurements after 20 hours was not feasible due to the battery life of the sensor. At the end of the experiment, the chamber was opened inside a chemical fume hood before metabolite extraction.
# as §1
# For polar metabolomics, the LC column was a Millipore ZIC-pHILIC (2.1×150 […], 5 μm bead size) coupled to a Dionex UltiMate 3000 system. The column oven temperature was held at 25° C. The flow rate was 100 μL/min, and the injection volume was 1 μL. Buffer A was 10 mM ammonium carbonate in water, pH 9, and Buffer B was neat acetonitrile. The gradient profile was 80-20% B (0-30 min), 20-80% B (30-31 min), and 80-80% B (31-42 min). MS Analyses were carried out on a Thermo Q Exactive HF mass spectrometer using a heated electrospray ionization (HESI) source. […]
# human cells = assay: 18O2-GASSP labelling of human cells, untargeted polar metabolomics, with or without IOX1; format: cell-based; details: 18O labelling of the metabolite in cells treated with IOX1 (dioxygenase inhibitor), 24 hours
# Method: To map the molecular fate of O2 in metabolic pathways in living cells, GASSP was used to carry out ^18O2 labelling in cell lines of different tissue origins at ^18O2 concentrations that represented physiological (3%), hypoxic (1%), and severely hypoxic (0.2%) oxygen tensions found in tissues and tumours^7. At the end of each run, polar metabolites were extracted and untargeted polar metabolomics using liquid chromatography-high resolution mass spectrometry (LC-MS) were carried out to identify metabolites labeled with ^18O.
# A list of unique features identified by untargeted metabolomics that were >0.25% (natural abundance of ^18O is 0.2%) labelled by ^18O atoms in each cell line at each oxygen tension was generated. In addition, background signal was controlled by requiring that ^18O labeled peaks had to have a signal that was two-fold greater than naturally occurring isotopes found in non-labelled (^16O) metabolite cell extracts. To determine the proportion of unique ^18O labelled features that were due to dioxygenase activity, cells were treated with a pan-dioxygenase inhibitor (IOX1) at concentrations that inhibit iron-dependent dioxygenases, such as the HIF1α prolyl hydroxylases (FIGS. 5E-5F) and identified ^18O labelled polar metabolites. This list of ^18O metabolites was generated by identifying all features in the unlabelled samples, filtering these features against blank samples to remove background peaks, and calculating the fractional ^18O labelling with the assumption that a metabolite would have no more than three oxygen atoms labelled, followed by manual curation of labelled features (FIG. 1B and FIG. 5G). […] These ^18O-labelled features were termed the oxy-metabolome.
# To determine the identities of the labeled metabolites, the list of ^18O labelled features was annotated to their corresponding unlabelled metabolites using retention time matching, tandem mass spectrometry (MS2) fragmentation patterns, and database searching.
# as §2
Compound,IOX1 Sensitive (Yes/No) (human cells),also measured
"CC(=O)N(O)CCCCCNC(=O)CCC(=O)N(O)CCCCCNC(=O)CCC(=O)N(O)CCCCCN [DFO, N-[5-[[4-[5-[acetyl(hydroxy)amino]pentylamino]-4-oxobutanoyl]-hydroxyamino]pentyl]-N′-(5-aminopentyl)-N′-hydroxybutanediamide]",–,"13C9-Tyr-derived 4-HMA (MIAPACA2 cells [1]; 3% 16O2, 24 hours): attenuated or ablated; also recorded: severely inhibited; CoQ10 labelling from 13C9-Tyr (incorporation of tyrosine into CoQ10) (MIAPACA2 cells [1]; 3% 16O2, 24 hours): eliminated; also recorded: completely blocked; 4-HPLA pools (MIAPACA2 cells [1]; 13C-Tyr, 3% O2, 24 hours): increased; 18O labelling of methionine (MIAPACA2 cells [2]; 3%, 1%, 0.2% 18O2, 24 hours): less sensitive; also recorded: only partially blocked; 18O labelling of γ-butyrobetaine (MIAPACA2 cells [2]; 3%, 1%, 0.2% 18O2, 24 hours): sensitive; also recorded: blocked; 18O labelling of 4-HMA (MIAPACA2 cells [2]; MIAPACA2, 3%, 1%, 0.2% 18O2, 24 hours, 500 μM IOX1, 250 μM DFO): sensitive; also recorded: significantly attenuated; 4-HMA levels (MIAPACA2 cells [2]; MIAPACA2, 18O2 labelling, 24 hours, 500 μM IOX1, 250 μM DFO, 70 μM ascorbate): significantly attenuated"
"CN(CC(=O)O)C(=N)N [Metabolite 29, Creatine]",Yes,–
"NCCS(=O)O [Metabolite 32, Hypotaurine]",Yes,–
CC(C)C[C@@H](C=O)NC(=O)[C@H](CC(C)C)NC(=O)[C@H](CC(C)C)NC(=O)OCc1ccccc1 [MG132] (Cbz-Leu-Leu-Leu-aldehyde),–,"Total levels of 18O labelled methionine sulfoxide (MIAPACA2 cells [2]; 5 μM MG132, 70 μM ascorbate, 24 hours): increased"
"O=c1ccn([C@@H]2O[C@H](COP(=O)(O)O)[C@@H](O)[C@H]2O)c(=O)[nH]1 [Metabolite 36, UMP]",Yes,–
"CC(=O)N[C@H]1C(O)O[C@H](CO)[C@@H](O)[C@@H]1O (stereo partly drawn) [Metabolite 16, N-Acetyl-D-glucosamine]",No,–
"CC(=O)N[C@@H](CO)[C@@H](O)[C@@H](O)[C@H](O)CO [Metabolite 17, N-Acetyl-D-galactosaminitol]",Yes,–
"CSCC[C@H](N)C(=O)O [Metabolite 13, Methionine]",Yes,–
"NC(=O)C1=CN([C@@H]2O[C@H](COP(=O)(O)OP(=O)(O)OC[C@H]3O[C@@H](n4cnc5c(N)ncnc54)[C@H](O)[C@@H]3O)[C@@H](O)[C@H]2O)C=CC1 [Metabolite 28, NADH]",Yes,–
"N[C@@H](CCSC[C@H](N)C(=O)O)C(=O)O [Metabolite 42, Cystathionine]",Yes,–
"C[S+]([O-])CC[C@H](N)C(=O)O (some centres unmarked) [Metabolite 23, Methionine Sulfoxide]",Yes,–
"CCCCC(=O)O[C@H](CC(=O)[O-])C[N+](C)(C)C [Metabolite 4, Valerylcarnitine]",Yes,–
"O=C(O)[C@@H]1C[C@@H](O)CN1 [Metabolite 24, Hydroxyproline]",Yes,–
"C[S+](CC[C@H](N)C(=O)[O-])C[C@H]1O[C@@H](n2cnc3c(N)ncnc32)[C@H](O)[C@@H]1O (some centres unmarked) [Metabolite 41, S-adenosyl methionine]",Yes,–
"O=C[C@@H](O)[C@@H](O)[C@H](O)[C@H](O)COP(=O)(O)O [Metabolite 46, D-Mannose 6-phosphate]",Yes,–
"N[C@@H](CCC(=O)O)C(=O)O [Metabolite 33, Glutamate]",Yes,–
"C[N+](C)(C)CCCC(=O)[O-] [Metabolite 21, g-Butyrobetaine]",Yes,–
